Drawing on patent publication US9809623B2, “α4β7 peptide monomer and dimer antagonists” (Protagonist Therapeutics, Inc., priority 2014, dated 2017), this text covers IC50 for three compounds.

The target of one experiment is T1, rh integrin α4β7 (Homo sapiens, UniProt P13612+P26010).
T1 construct: purchased R&D Systems 5397-A30
In words: α4β7-MAdCAM Competition ELISA. Format: binding. The gist of the method:
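Competition read-out was A450 after anti-human IgG1-HRP and TMB detection of bound recombinant human MAdCAM-1 (10 nM final). Peptides were serially diluted 3-fold from a final 10 μM and equilibrated 1 h at room temperature on nickel-captured α4β7 (800 ng/well). The buffer was Tris pH 7.6 with 1 mM Mn2+ or Mg2+.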
On the technique in general: ELISA stands for enzyme-linked immunosorbent assay.

The target in another experiment is α4β7 (Homo sapiens, UniProt P13612+P26010). Briefly: PBMC Memory T Cell Adhesion Assay, adhesion to MAdCAM-1. The experiment is classed as cell-based. The procedure:
Fresh CD4+/CD45RO+ memory T cells were isolated from human peripheral blood mononuclear cell (PBMC) donors by Aragen Bioscience Inc. (Morgan Hill, Calif.). The assay plate was prepared using IgG Fc capture antibody (donkey anti human) immobilized at 500 ng/well in 50 mM sodium bicarbonate buffer, pH 9.5, ON, 4C onto a Greiner Fluotrac plate (100 ul per well). The plate was rinsed two time with Blocking Buffer (25 mM Tris HCl, pH7.5, 150 mM NaCl, 1.5% BSA, 0.05% Tween), and blocked with Blocking Buffer for 2 hours at 37 C or 5 hours at RT using 200 ul per well. The Blocking Buffer was removed and either MAdCAM-1 or VCAM-1 at 400 ng/well in Blocking Buffer was added and the plate incubated overnight at 4C (100 ul per well). The plate was washed two times with Blocking Buffer, and rinsed once with 200 ul Binding Media (DMEM phenol red free, 10 mM HEPES, 1×Na pyruvate, 1× Glutamine, and supplemented with 1 mM MnCl2 prior to use). To prepare cells, approximately 25 million CD4+/CD45RO+ memory T cells were counted by trypan blue exclusion using a haemocytometer to determine viability and cell count. The cells were transferred to a 50 ml conical tube, and centrifuged at 1200 rpm for 10 minute. The media was aspirated and the cell pellet resuspended in 15 ml Binding Media. The cells were centrifuged again and resuspended in the appropriate amount of Binding Media to be used for assays (50 ul of cells per well at 2× the final density). To each well, and equal volume (50 ul) of test compound was added and the plate was incubated for 1.5 hours at 37 C, 5% CO2. Each well was rinsed 3× with 150 ul per well of Binding Media. […] The plate was incubated at 37 C, 5% CO2, for 45 minutes. The plate was protected from light by using black adhesive seals. Fluorescence intensity was measured using a Molecular Devices Gemini EM Fluorescent Plate Reader (Ex 485/Em530, Bottom Read, Reading Sensitivity=20). IC50 curves are generated using Graph Pad Prism and the curves analyzed using analyzed using a non-linear regression (four parameters) algorithm. The log (concentration) versus RFU (Ex485/Em530) was plotted to determine IC50 values.

The mark [1] stands for this setting: Table 3-B, Potency (α4β7), range classes, read-out: α4β7 ELISA IC50.
The mark [2] stands for this setting: Table 3-B, range classes, read-out: PBMC IC50.

Read-outs that look alike come from different tables or passages of the source. Numbered stars: 1 amine (or outer) side, 2 acyl side, 3 side chain; on linkers, the order of the positions; unused ones are H or OH. Bridge positions count the residues as written; N and C are the ends. Square brackets hold non-standard residues; d marks the D form. Peptide text beside a SMILES is read from it. I, II: the chains in the order shown. ξ: configuration not given here. Phe(4-COOH) = N[C@@H](Cc1ccc(C(=O)O)cc1)C(=O)O; Phe(4-tBu) = CC(C)(C)c1ccc(C[C@H](N)C(=O)O)cc1; Diglycolyl = O=C(COCC(=O)[*:2])[*:1]; NMeR = CN[C@@H](CCCNC(=N)N)C(=O)O; β3hE = N[C@@H](CCC(=O)O)CC(=O)O; Thr(3ξ) = CC(O)[C@H](N)C(=O)O; Pen = CC(C)(S)[C@H](N)C(=O)O

T1 sequence (P13612 34-977 limits assumed): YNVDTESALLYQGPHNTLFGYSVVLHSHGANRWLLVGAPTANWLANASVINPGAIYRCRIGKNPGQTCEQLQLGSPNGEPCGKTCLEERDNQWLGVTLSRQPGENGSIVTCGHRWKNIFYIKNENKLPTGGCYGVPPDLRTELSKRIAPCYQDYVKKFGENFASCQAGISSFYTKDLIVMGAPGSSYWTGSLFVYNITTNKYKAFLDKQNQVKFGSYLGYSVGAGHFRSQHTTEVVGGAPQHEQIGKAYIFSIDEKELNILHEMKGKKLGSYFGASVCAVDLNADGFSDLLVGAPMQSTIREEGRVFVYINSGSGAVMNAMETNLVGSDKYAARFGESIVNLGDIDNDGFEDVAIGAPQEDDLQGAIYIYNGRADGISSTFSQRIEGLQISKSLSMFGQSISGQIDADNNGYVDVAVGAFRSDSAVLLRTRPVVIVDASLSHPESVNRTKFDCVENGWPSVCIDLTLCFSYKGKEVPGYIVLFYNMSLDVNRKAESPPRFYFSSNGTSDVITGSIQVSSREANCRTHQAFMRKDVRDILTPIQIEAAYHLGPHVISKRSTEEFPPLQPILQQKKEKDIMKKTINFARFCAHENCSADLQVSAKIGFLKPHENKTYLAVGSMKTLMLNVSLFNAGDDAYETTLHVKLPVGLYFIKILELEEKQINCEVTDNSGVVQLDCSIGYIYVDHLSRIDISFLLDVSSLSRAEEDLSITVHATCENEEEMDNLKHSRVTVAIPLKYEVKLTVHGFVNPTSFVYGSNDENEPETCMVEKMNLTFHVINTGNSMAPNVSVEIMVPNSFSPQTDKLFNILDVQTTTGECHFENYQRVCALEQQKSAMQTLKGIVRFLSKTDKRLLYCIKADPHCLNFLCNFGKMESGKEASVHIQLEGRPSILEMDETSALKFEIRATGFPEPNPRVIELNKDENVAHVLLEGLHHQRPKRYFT
T1 sequence (P26010 20-723 limits assumed): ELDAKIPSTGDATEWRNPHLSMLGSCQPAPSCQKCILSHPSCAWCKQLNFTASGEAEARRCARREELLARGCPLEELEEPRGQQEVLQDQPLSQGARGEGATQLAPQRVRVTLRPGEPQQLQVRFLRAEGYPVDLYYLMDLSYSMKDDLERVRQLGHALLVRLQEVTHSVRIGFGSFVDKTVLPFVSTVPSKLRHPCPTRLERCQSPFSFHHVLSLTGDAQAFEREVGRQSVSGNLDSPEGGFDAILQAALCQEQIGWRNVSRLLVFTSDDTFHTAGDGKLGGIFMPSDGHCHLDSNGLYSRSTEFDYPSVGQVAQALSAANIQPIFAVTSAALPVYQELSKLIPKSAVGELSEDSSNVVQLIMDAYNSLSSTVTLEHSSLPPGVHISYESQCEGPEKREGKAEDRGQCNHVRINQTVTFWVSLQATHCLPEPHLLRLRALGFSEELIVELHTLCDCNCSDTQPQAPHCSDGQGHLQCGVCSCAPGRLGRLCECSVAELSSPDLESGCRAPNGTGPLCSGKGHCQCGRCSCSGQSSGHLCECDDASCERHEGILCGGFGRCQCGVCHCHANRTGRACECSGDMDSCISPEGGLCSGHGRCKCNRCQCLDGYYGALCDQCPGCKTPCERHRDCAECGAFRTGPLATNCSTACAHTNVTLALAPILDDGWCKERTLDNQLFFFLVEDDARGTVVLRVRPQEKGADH
α4β7, sequence (P13612 34-1032): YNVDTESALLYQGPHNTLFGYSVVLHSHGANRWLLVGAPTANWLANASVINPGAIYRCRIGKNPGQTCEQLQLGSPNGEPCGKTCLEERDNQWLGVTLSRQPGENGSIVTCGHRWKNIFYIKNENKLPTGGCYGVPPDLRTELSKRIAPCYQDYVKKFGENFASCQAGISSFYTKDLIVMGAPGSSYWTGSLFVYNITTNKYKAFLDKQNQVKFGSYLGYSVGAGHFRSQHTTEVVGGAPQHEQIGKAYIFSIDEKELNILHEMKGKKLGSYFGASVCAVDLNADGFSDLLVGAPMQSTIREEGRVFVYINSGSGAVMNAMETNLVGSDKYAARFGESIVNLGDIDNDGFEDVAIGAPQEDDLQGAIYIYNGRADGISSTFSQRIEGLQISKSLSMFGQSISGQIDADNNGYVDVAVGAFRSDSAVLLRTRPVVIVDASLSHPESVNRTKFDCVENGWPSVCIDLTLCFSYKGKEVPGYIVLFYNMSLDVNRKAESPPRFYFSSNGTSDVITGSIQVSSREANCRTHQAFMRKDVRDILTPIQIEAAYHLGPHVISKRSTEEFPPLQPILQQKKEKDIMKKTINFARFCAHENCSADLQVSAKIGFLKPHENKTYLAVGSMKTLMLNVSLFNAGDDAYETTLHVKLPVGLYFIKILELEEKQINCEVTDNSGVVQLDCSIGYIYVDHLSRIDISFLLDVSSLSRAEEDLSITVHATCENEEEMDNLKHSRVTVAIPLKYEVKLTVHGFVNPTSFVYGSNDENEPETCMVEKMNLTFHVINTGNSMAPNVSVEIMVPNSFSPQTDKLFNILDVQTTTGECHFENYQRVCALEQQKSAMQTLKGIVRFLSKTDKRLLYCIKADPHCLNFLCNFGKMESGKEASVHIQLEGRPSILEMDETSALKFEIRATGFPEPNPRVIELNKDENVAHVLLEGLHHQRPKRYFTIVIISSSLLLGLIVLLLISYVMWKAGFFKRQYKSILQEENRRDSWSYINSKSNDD
α4β7, sequence (P26010 20-798): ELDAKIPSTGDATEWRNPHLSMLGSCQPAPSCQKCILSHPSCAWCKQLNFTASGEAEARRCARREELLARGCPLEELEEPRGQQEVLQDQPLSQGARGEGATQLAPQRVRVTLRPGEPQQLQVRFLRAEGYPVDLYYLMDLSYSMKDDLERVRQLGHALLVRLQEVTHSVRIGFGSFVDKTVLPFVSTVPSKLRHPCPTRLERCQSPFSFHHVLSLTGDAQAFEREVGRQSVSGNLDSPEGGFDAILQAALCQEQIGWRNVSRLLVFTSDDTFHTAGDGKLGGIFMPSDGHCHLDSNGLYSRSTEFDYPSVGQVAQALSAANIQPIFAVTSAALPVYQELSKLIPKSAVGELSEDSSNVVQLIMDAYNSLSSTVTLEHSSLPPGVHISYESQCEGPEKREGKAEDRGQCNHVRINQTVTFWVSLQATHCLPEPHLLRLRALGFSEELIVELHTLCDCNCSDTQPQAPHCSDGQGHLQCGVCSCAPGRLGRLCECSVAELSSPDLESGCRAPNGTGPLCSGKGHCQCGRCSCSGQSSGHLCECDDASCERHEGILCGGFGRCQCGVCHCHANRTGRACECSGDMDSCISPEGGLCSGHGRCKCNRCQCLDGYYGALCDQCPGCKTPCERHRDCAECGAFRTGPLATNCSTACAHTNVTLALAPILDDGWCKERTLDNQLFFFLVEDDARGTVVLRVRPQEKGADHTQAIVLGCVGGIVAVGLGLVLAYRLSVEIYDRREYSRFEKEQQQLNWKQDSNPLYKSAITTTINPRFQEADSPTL

Take `CC(=O)N[C@@H]1C(=O)N(C)[C@@H](CCCNC(=N)N)C(=O)N[C@@H](CO)C(=O)N[C@@H](CC(=O)O)C(=O)N[C@@H](C(C)O)C(=O)N[C@@H](CC(C)C)C(=O)N[C@H](C(=O)N[C@@H](Cc2ccc(C(C)(C)C)cc2)C(=O)N[C@@H](CCC(=O)O)CC(=O)N[C@H](CCCCNC(=O)COCC(=O)NCCCC[C@@H](NC(=O)C[C@H](CCC(=O)O)NC(=O)[C@H](Cc2ccc(C(C)(C)C)cc2)NC(=O)[C@H]2NC(=O)[C@H](CC(C)C)NC(=O)[C@H](C(C)O)NC(=O)[C@H](CC(=O)O)NC(=O)[C@H](CO)NC(=O)[C@H](CCCNC(=N)N)N(C)C(=O)[C@@H](NC(C)=O)C(C)(C)SSC2(C)C)C(N)=O)C(N)=O)C(C)(C)SSC1(C)C` (stereo partly drawn) [Peptide X, [Ac-Pen-(N-Me-Arg)-Ser-Asp-Thr-Leu-Pen-(Phe(4-tBu))-(β-homoGlu)-(D-Lys)]2-DIG] (I: Ac-[Pen][NMeR]SD[Thr(3ξ)]L[Pen][Phe(4-tBu)][β3hE][dK]-NH2 / II: Ac-[Pen][NMeR]SD[Thr(3ξ)]L[Pen][Phe(4-tBu)][β3hE][dK]-NH2; disulfide I:1-I:7, II:1-II:7; linker I:10-II:10 via Diglycolyl): the half-inhibitory concentration (IC50) was found to be 3 nM at rh integrin α4β7 (1 mM Mg^2+ binding conditions, read-out: IC50 for α4β7, competition ELISA); 1.3 nM on α4β7 (average, cells isolated from 4 different human PBMC donors, read-out: IC50 (nM), memory T cells, Integrin α4β7, Ligand MAdCAM-1); 1 nM on α4β7 (read-out: IC50 for α4β7 T cells).

Turning to `CC(=O)N[C@@H]1C(=O)N(C)[C@@H](CCCNC(=N)N)C(=O)N[C@@H](CO)C(=O)N[C@@H](CC(=O)O)C(=O)N[C@@H]([C@@H](C)O)C(=O)N[C@@H](CC(C)C)C(=O)N[C@H](C(=O)N[C@@H](Cc2c[nH]c3ccccc23)C(=O)N[C@H](CCC(=O)O)C(=O)N[C@H](CCCCNC(=O)COCC(=O)NCCCC[C@@H](NC(=O)[C@@H](CCC(=O)O)NC(=O)[C@H](Cc2c[nH]c3ccccc23)NC(=O)[C@H]2NC(=O)[C@H](CC(C)C)NC(=O)[C@H]([C@@H](C)O)NC(=O)[C@H](CC(=O)O)NC(=O)[C@H](CO)NC(=O)[C@H](CCCNC(=N)N)N(C)C(=O)[C@@H](NC(C)=O)C(C)(C)SSC2(C)C)C(N)=O)C(N)=O)C(C)(C)SSC1(C)C` [compound 68] (I: Ac-[Pen][NMeR]SDTL[Pen]W[dE][dK]-NH2 / II: Ac-[Pen][NMeR]SDTL[Pen]W[dE][dK]-NH2; disulfide I:1-I:7, II:1-II:7; linker I:10-II:10 via Diglycolyl), the 50% inhibitory concentration (IC50) at rh integrin α4β7 (setting [1]) was < 10 nM; at α4β7 (setting [2]), 100 to 500 nM.

With `CC(=O)N[C@@H]1C(=O)N(C)[C@@H](CCCNC(=N)N)C(=O)N[C@@H](CO)C(=O)N[C@@H](CC(=O)O)C(=O)N[C@@H]([C@@H](C)O)C(=O)N[C@@H](CC(C)C)C(=O)N[C@H](C(=O)N[C@@H](Cc2ccc(C(=O)O)cc2)C(=O)N[C@@H](CCC(=O)O)C(=O)N[C@H](CCCCNC(=O)COCC(=O)NCCCC[C@@H](NC(=O)[C@H](CCC(=O)O)NC(=O)[C@H](Cc2ccc(C(=O)O)cc2)NC(=O)[C@H]2NC(=O)[C@H](CC(C)C)NC(=O)[C@H]([C@@H](C)O)NC(=O)[C@H](CC(=O)O)NC(=O)[C@H](CO)NC(=O)[C@H](CCCNC(=N)N)N(C)C(=O)[C@@H](NC(C)=O)C(C)(C)SSC2(C)C)C(N)=O)C(N)=O)C(C)(C)SSC1(C)C` [compound 129] (I: Ac-[Pen][NMeR]SDTL[Pen][Phe(4-COOH)]E[dK]-NH2 / II: Ac-[Pen][NMeR]SDTL[Pen][Phe(4-COOH)]E[dK]-NH2; disulfide I:1-I:7, II:1-II:7; linker I:10-II:10 via Diglycolyl), the half-maximal inhibitory concentration (IC50) at rh integrin α4β7 (setting [1]) and at α4β7 (setting [2]) was < 10 nM each time.

For orientation: IC50 means the point on the concentration scale where inhibition reaches its midpoint.
